The test system of one assay is guinea pig gall bladder. Description: Guinea pig gall bladder assay (contraction of isolated gallbladder rings). The format is cell-based. As to conditions: Cavia porcellus, compounds tested at 1 μM, minimum of three determinations, read-out: Contraction (% sulfated CCK-8 maximal response). From the text: GUINEA PIG GALL BLADDER ASSAY Tissue Preparation: Gallbladders were removed from guinea pigs sacrificed by cervical dislocation. The isolated gallbladders were cleaned of adherent connective tissue and cut into two rings from each animal (2-4 mm in length). The rings were subsequently suspended in organ chambers containing a physiological salt solution of the following composition (mM): NaCl (118.4); KCl (4.7); MgSO4 ×H2 O (1.2); CaCl2 ×2H2 O (2.5); […] (1.2); NaHCO3 (25) and dextrose (11.1). The bathing solution was maintained at 37° C. and aerated with 95% O2 /5%CO2. Tissues were connected via gold chains and stainless steel mounting wires to isometric force displacement transducers (Grass, Model FT03 D). Responses were then recorded on a polygraph (Grass, Model 7E). […] Assay: Rings were gradually stretched (over a 120 min. period) to a basal resting tension of 1 gm which was maintained throughout the experiment. During the basal tension adjustment period, the rings were exposed to acetylcholine (ACH, 10^-6 M) four times to verify tissue contractility. The tissues were then exposed to a submaximal dose of sulfated CCK-8 (Sigma, 3×10^-9 M). After obtaining a stable response, the tissues were washed out 3 times rapidly and every 5 to 10 minutes for 1 hour to reestablish a stable baseline. Compounds were dissolved in dimethylsulfoxide (DMSO) then diluted with water and assayed via a cumulative concentration-response curve to test compound (10^-11 to 3×10^-6 M) followed by a concentration-response curve to sulfated CCK-8 (10^-10 to 10^-6 M) in the presence of the highest dose of the test compound. As a final test, ACH (10 mM) was added to induce maximal contraction. A minimum of three determinations of activity were made for each test compound. The compounds were tested at a concentration of 1 μM and the results expressed as % sulfated CCK-8 maximal response.
For `COc1ccc(N(C(=O)CN2C(=O)C(NC(=O)c3cc4ccccc4[nH]3)C(=O)N(c3ccccn3)c3ccccc32)C(C)C)cc1` (single isomer, unassigned) [Example 3, (+) or (-) 1H-Indole-2-carboxylic acid {1-[Isopropyl-(4-methoxy-phenyl)-carbamoylmethyl]-2,4-dioxo-5-pyridin-2-yl-2,3,4,5-tetrahydro-1H-benzo[b][1,4]diazepin-3-yl}-amide], the Emax at 1 µM is 83%. With `COc1ccc(N(C(=O)CN2C(=O)C(NC(=O)c3cc4ccccc4[nH]3)C(=O)N(c3cccnc3)c3ccccc32)C(C)C)cc1` (single isomer, unassigned) [Example 14, (+) or (-) 1H-Indole-2-carboxylic acid [I-[isopropyl-(4-methoxyphenyl)-carbamoylmethyl]-2,4-dioxo-5-pyridin-3-yl-2,3,4,5-tetrahydro-1H-benzo[b][1,4]diazepin-3-yl]amide], the Emax at 1 µM amounted to 84%. Still for that read-out and setting: for `COc1ccc(N(C(=O)CN2C(=O)C(NC(=O)Nc3ccccc3)C(=O)N(c3ccccn3)c3ccccc32)C(C)C)cc1` (stereo not shown) [Example 1, 2-[2,4-Dioxo-3-(3-phenyl-ureido)-5-pyridin-2-yl-2,3,4,5-tetrahydrobenzo[b][1,4]diazepin-1-yl]-N-isopropyl-N-(4-methoxy-phenyl)-acetamide] the value was 91%. Same read-out and setting: for `COc1ccc(N(C(=O)CN2C(=O)C(NC(=O)c3cc4ccccc4[nH]3)C(=O)N(c3ccccn3)c3ccccc32)C(C)C)cc1` (stereo not shown) [Example 2, 1H-Indole-2-carboxylic acid {1-[Isopropyl-(4-methoxy-phenyl)-carbamoylmethyl]-2,4-dioxo-5-pyrdin-2-yl-2,3,4,5-tetrahydro-1H-benzo[b][1,4]diazepin-3-yl}-amide] the value was 64%.

With `COc1ccc(N(C(=O)CN2C(=O)C(NC(=O)c3cc4ccccc4[nH]3)C(=O)N(c3ncccn3)c3ccccc32)C(C)C)cc1` (stereo not shown) [Example 5, 1H-Indole-2-carboxylic acid {1-[Isopropyl-(4-methoxy-phenyl)-carbamoylmethyl]-2,4-dioxo-5-pyrimidin-2-yl-2,3,4,5-tetrahydro-1H-benzo[b][1,4]diazepin-3-yl}-amide], the Emax at 1 µM stood at 51%. The same measure, in the same setting: for `COc1ccc(N(C(=O)CN2C(=O)C(NC(=O)c3cc4ccccc4[nH]3)C(=O)N(c3c(C)nn(C)c3C)c3ccccc32)C(C)C)cc1` (stereo not shown) [Example 6, 1H-Indole-2-carboxylic acid [1-[isopropyl-(4-methoxy-phenyl)-carbamoylmethyl]-2,4-dioxo-5-(1,3,5-trimethyl-1H-pyrazol-4-yl)-2,3,4,5-tetrahydro-1H-benzo[b][1,4]diazepin-3-yl]-amide] the value was 32%; for `COc1ccc(N(C(=O)CN2C(=O)C(NC(=O)c3cc4ccccc4[nH]3)C(=O)N(c3cccnc3)c3ccccc32)C(C)C)cc1` (stereo not shown) [Example 7, 1H-Indole-2-carboxylic acid {1[isopropyl-(4-methoxy-phenyl)-carbamoylmethyl]-2,4-dioxo-5-pyridin-3-yl-2,3,4,5-tetrahydro-1H-benzo[b][1,4]diazepin-3-yl}-amide], 77%; for `COc1ccc(N(C(=O)CN2C(=O)C(NC(=O)Nc3ccccc3)C(=O)N(c3cccnc3)c3ccccc32)C(C)C)cc1` (stereo not shown) [Example 8, 2-[2,4-dioxo-3-(3-phenyl-ureido)-5-pyridin-3-yl-2,3,4,5-tetrahydrobenzo[b][1,4]diazepin-1-yl]-N-isopropyl-N-(4-methoxy-phenyl) acetamide], 81%. Take `COc1ccc(N(C(=O)CN2C(=O)C(NC(=O)Nc3cccc(C(=O)O)c3)C(=O)N(c3cccnc3)c3ccccc32)C(C)C)cc1` (stereo not shown) [Example 10, 3-(3-{1-[isopropyl-(4-methoxy-phenyl)-carbamoylmethyl]-2,4-dioxo-5-pyridin-3-yl-2,3,4,5-tetrahydro-1H-benzo[b][1,4]diazepin-3-yl}-ureido)-benzoic acid]: the Emax at 1 µM turned out to be 83%. `COc1ccc(N(C(=O)CN2C(=O)C(NC(=O)c3cc4ccccc4[nH]3)C(=O)N(c3ccncc3)c3ccccc32)C(C)C)cc1` (stereo not shown) [Example 11, 1H-Indole-2-carboxylic acid {1-[Isopropyl-(4-methoxy-phenyl)-carbamoylmethyl]-2,4-indoledioxo-5-pyridin4-yl-2,3,4,5,5a, 9a-hexahydro-1H-benzo[b][1,4]diazepin-3-yl}-amide]: the Emax at 1 µM stood at 67%. Still for that read-out and setting: the figure for `COc1ccc(N(C(=O)CN2C(=O)C(NC(=O)Nc3cccc(C(=O)O)c3)C(=O)N(c3cccnc3)c3cc(F)ccc32)C(C)C)cc1` (stereo not shown) [Example 13, 3-(3-{7-Fluoro-1-[isopropyl-(4-methoxy-phenyl)-carbamoylmethyl]-2,4-dioxo-5-pyridin-3-yl-2,3,4,5-tetrahydro-1H-benzo[b][1,4]diazepin-3-yl}-ureido)-benzoic acid] is 96%.

Still in this assay, the particulars now being: compounds tested at 1 μM, minimum of three determinations.
On to `COc1ccc(N(C(=O)CN2C(=O)C(NC(=O)c3cc4ccccc4[nH]3)C(=O)N(c3ccccn3)c3ccccc32)C(C)C)cc1` (single isomer, unassigned) [Example 4, (+) or (-) 1H-Indole-2-carboxylic acid {1-[Isopropyl-(4-methoxy-phenyl)-carbamoylmethyl]-2,4-dioxo-5-pyridin-2-yl-2,3,4,5-tetrahydro-1H-benzo[b][1,4]diazepin-3-yl}-amide], for which the “Contraction (% sulfated CCK-8 maximal response)” value came to 67%. Turning to `COc1ccc(N(C(=O)CN2C(=O)C(NC(=O)c3cc4ccccc4[nH]3)C(=O)N(c3cccnc3)c3ccccc32)C(C)C)cc1` (single isomer, unassigned) [Example 15, (+) or (-) 1H-Indole-2-carboxylic acid [I-[isopropyl-(4-methoxyphenyl)-carbamoylmethyl]-2,4-dioxo-5-pyridin-3-yl-2,3,4,5-tetrahydro-1H-benzo[b][1,4]diazepin-3-yl]amide], the “Contraction (% sulfated CCK-8 maximal response)” value is 93%.

The record behind these values is patent US5739129A, “CCK or gastrin modulating 5-heterocyclic-1, 5 benzodiazepines” (Glaxo Wellcome Inc., priority 1994, dated 1998).
